In ChEMBL document CHEMBL3301361, “Experimental in vitro DMPK and physicochemical data on a set of publicly disclosed compounds”:
In brackets after ≈: the same amount, converted by molar mass.

Assays:
in vitro [1] = details: human
in vitro [2] = details: hepatocytes
in vitro [3] = details: human, plasma
physchem [4] = details: octan-1-ol/water
physchem [5] = details: pH 7.4 buffer

SMILES	microsomal CLint (in vitro [1]; microsomes)	hepatocyte CLint (in vitro [2])	fraction unbound at 5 h (in vitro [3]; PPB)	microsomal CLint (in vitro [1]; liver microsomes)	fraction unbound at 5 h (in vitro [3])	logD (physchem [4]; pH 7.4)	logD (physchem [4]; pH 7.4, LogD7.4)	solubility thermodynamic (physchem [5])
CN(C)c1nc(NC[C@H]2CC[C@H](CNS(=O)(=O)c3ccc(Br)cc3OC(F)(F)F)CC2)nc2ccccc12	117 µL/min/mg	50.1 µL/min/1e6 cells	0.0005	–	–	–	–	–
O=C(C1CCN(c2nnc(-n3cccc3)s2)CC1)N1CCN(Cc2ccc3c(c2)OCO3)CC1	–	50.1 µL/min/1e6 cells	0.0447	> 150 µL/min/mg	–	–	2.5	–
Cc1cc(C)cc(-c2nnc(SCC(=O)N3CCN(C(=O)c4ccco4)CC3)o2)c1	67.6 µL/min/mg	89.1 µL/min/1e6 cells	0.0321	–	–	–	3	–
Nc1nc2ccc(-c3ccncc3)cc2s1	–	29.5 µL/min/1e6 cells	0.119	20.4 µL/min/mg	–	–	–	–
CCOc1ccc2oc(C(=O)NC(CCSC)c3nc4cnccc4[nH]3)c(C)c2c1 (stereo not drawn)	–	21 µL/min/1e6 cells	–	17 µL/min/mg	–	–	4.31	10.5 µM (≈ 4.46 µg/mL)
CN[C@@H](C)C(=O)N[C@H](C(=O)N1CC[C@H]2CCN(CCc3ccccc3)C[C@H]21)C1CCCCC1	–	10.5 µL/min/1e6 cells	0.0568	21.4 µL/min/mg	–	–	2.47	–
COc1ccc(-c2nc3c(NCCCN(C)C(=O)C4CCC4)c(Br)cnc3[nH]2)cc1	–	138 µL/min/1e6 cells	0.0022	> 150 µL/min/mg	–	–	–	–
COc1ccc(N(C(=O)Oc2c(C)cccc2C)c2ccnc(Nc3ccc(N4CCN(C)CC4)cc3)n2)c(OC)c1	27.5 µL/min/mg	35.5 µL/min/1e6 cells	–	–	0.0017	–	–	–
CCc1nc2ccc(C(=O)NCc3ccc4c(c3)OCO4)cn2c1N(C)Cc1cccs1	–	> 150 µL/min/1e6 cells	0.0035	> 150 µL/min/mg	–	–	–	–
CCNC(=O)C[C@H]1N=C(c2ccc(Cl)cc2)c2cc(OC)ccc2-n2c(C)nnc21	11.5 µL/min/mg	6.31 µL/min/1e6 cells	–	–	0.069	–	–	–
O=C(O)Cc1ccc(N2CCC(CN3CCC(Oc4ccc(Cl)c(Cl)c4)CC3)CC2)cc1	< 3 µL/min/mg	9 µL/min/1e6 cells	0.02	–	–	–	–	–
CC(C)N(CCCNC(=O)Nc1ccc(C(C)(C)C)cc1)C[C@H]1O[C@@H](n2ccc3c(N)ncnc32)[C@H](O)[C@@H]1O	–	33.9 µL/min/1e6 cells	0.201	> 150 µL/min/mg	–	–	2.4	–
CC(C)c1ccc(NC(=O)NCCCSC[C@H]2O[C@@H](n3cnc4c(N)ncnc43)[C@H](O)[C@@H]2O)cc1	–	110 µL/min/1e6 cells	0.0784	126 µL/min/mg	–	–	2.5	–
CC(C)N(CCCNC(=O)Nc1ccc(C(C)(C)C)cc1)C[C@H]1O[C@@H](n2cnc3c(N)ncnc32)[C@H](O)[C@@H]1O	–	26.9 µL/min/1e6 cells	0.285	112 µL/min/mg	–	–	2.2	–
C=CC(=O)Nc1cccc(CN2C(=O)N(c3c(Cl)c(OC)cc(OC)c3Cl)Cc3cnc(NCCCCN(CC)CC)nc32)c1	–	39.8 µL/min/1e6 cells	0.02	87.1 µL/min/mg	–	–	2.04	–
CCc1[nH]c2nc(Sc3cnc4ccc[n+]([O-])c4c3)nc(N3C[C@@H]4[C@@H](N)[C@@H]4C3)c2c1Cl	33.9 µL/min/mg	58.9 µL/min/1e6 cells	0.0661	–	–	–	2.3	–
CNc1nc(C)c(-c2nc(Nc3cccc(N4CCNCC4)c3)ncc2C#N)s1	17.8 µL/min/mg	12.3 µL/min/1e6 cells	0.139	–	–	–	1.9	–
CNc1nc(C)c(-c2nc(Nc3cccc(N4CCCCC4)c3)ncc2C#N)s1	–	> 150 µL/min/1e6 cells	0.0019	95.5 µL/min/mg	–	–	–	–
C[C@@H](C(N)=O)c1ccc(OS(=O)(=O)C(F)(F)F)cc1	–	3 µL/min/1e6 cells	0.134	< 3 µL/min/mg	–	–	–	–
CCOc1nc2ccc(OCCC3CCN(c4ccc(C)nn4)CC3)cc2o1	–	4 µL/min/1e6 cells	0.0028	6 µL/min/mg	–	–	–	–
CN[C@@H](C)C(=O)N[C@H](C(=O)N1CC[C@H]2CC[C@H](NC(=O)c3cccc4ccccc34)[C@H]21)C(C)(C)C	–	12 µL/min/1e6 cells	0.016	85.1 µL/min/mg	–	–	1.94	–
CC1(C)S[C@@H]2[C@H](NC(=O)C(C(=O)O)c3ccccc3)C(=O)N2[C@H]1C(=O)O (stereo partly drawn) [CARBENICILLIN]	–	3.39 µL/min/1e6 cells	0.546	6.92 µL/min/mg	–	–	–	–
COc1cc(C(=O)OCCCCNC(=N)N)cc(OC)c1O [LEONURINE]	–	138 µL/min/1e6 cells	0.619	< 3 µL/min/mg	–	–	–	–
CS(=O)(=O)c1ccc([C@@H](CC2CCCC2)C(=O)Nc2nccs2)cc1 [Ro-281675]	29.5 µL/min/mg	20.9 µL/min/1e6 cells	–	–	–	–	3.86	5.5 µM (≈ 2.08 µg/mL)

Now from value to molecule:

microsomal CLint (in vitro [1]; microsomes)	hepatocyte CLint (in vitro [2])	fraction unbound at 5 h (in vitro [3]; PPB)	microsomal CLint (in vitro [1]; liver microsomes)	fraction unbound at 5 h (in vitro [3])	logD (physchem [4]; pH 7.4)	logD (physchem [4]; pH 7.4, LogD7.4)	solubility thermodynamic (physchem [5])	SMILES
–	> 150 µL/min/1e6 cells	–	> 150 µL/min/mg	0.0052	–	–	–	Cc1[nH]c2ccc(-c3nnc(SCC(=O)N4CCCc5ccccc54)o3)cc2c1C
–	25.1 µL/min/1e6 cells	–	60.3 µL/min/mg	0.069	3.1	–	–	O=C(Nc1ccncc1)c1cccc2ccccc12
–	> 150 µL/min/1e6 cells	0.04	104 µL/min/mg	–	–	2.79	–	COc1cnc(-c2ccccn2)nc1N(C)c1ccccc1
7 µL/min/mg	103 µL/min/1e6 cells	0.0024	–	–	–	–	–	COc1ccccc1C(=O)Nc1ccc(Cc2ccncc2)cc1
138 µL/min/mg	> 150 µL/min/1e6 cells	0.0661	–	–	–	2.58	–	O=C(Nc1ccccc1Cl)c1cc[nH]n1
5.13 µL/min/mg	7.94 µL/min/1e6 cells	–	–	0.179	1.4	–	–	O=C1Nc2ccccc2B(O)N1c1ccccc1
–	74 µL/min/1e6 cells	0.398	31 µL/min/mg	–	–	–	–	CSCCC(NC(=O)c1cnccn1)c1nc2ccccc2[nH]1 (stereo not drawn)
11.2 µL/min/mg	24 µL/min/1e6 cells	–	–	–	–	4.5	2.1 µM (≈ 0.788 µg/mL)	CN(C)CCNc1cc(-c2ccccc2)nc2cc(-c3ccc(F)cc3)nn12
–	148 µL/min/1e6 cells	–	> 150 µL/min/mg	0.028	–	–	–	COCCNc1nc(NCc2ccccc2F)c2sccc2n1
19 µL/min/mg	42 µL/min/1e6 cells	–	–	–	–	1.63	118 µM (≈ 58.5 µg/mL)	O=c1[nH]c2c(O)ccc([C@@H](O)CNCCc3cccc(CNCCc4ccccc4Cl)c3)c2s1
112 µL/min/mg	85.1 µL/min/1e6 cells	0.0801	–	–	–	3	–	O=C(Nc1nc2ccccc2n1CCCO)c1cccc([N+](=O)[O-])c1
–	93.3 µL/min/1e6 cells	0.0836	21.4 µL/min/mg	–	–	2.5	–	Nc1ncnc2c1ncn2[C@@H]1O[C@H](CSCCCNC(=O)Nc2ccc(Cl)cc2)[C@@H](O)[C@H]1O
> 150 µL/min/mg	> 150 µL/min/1e6 cells	0.0017	–	–	–	–	–	O=C(CSc1nc2c(c(=O)n1-c1ccccc1)SCC2)Nc1ccc(-c2ccccc2)cn1
–	129 µL/min/1e6 cells	0.0023	> 150 µL/min/mg	–	–	–	–	O=C(CSc1nc2c(c(=O)n1-c1ccccc1)SCC2)Nc1ncc(-c2ccccc2)s1
–	61.7 µL/min/1e6 cells	0.0245	105 µL/min/mg	–	–	2.7	–	CC(C)C(=O)Nc1nc(-c2ccccn2)cc2ccccc12
